Source: US20110269805A1, “METHOD OF TREATING SENSORIMOTOR DISORDERS WITH 4-(1-(2,3-DIMETHYLPHENYL)ETHYL)-1H-IMIDAZOLE-2(3H)-THIONE” (priority 2007, published 2011)
“Also recorded” adds a separate entry of the source.

Tests used:
Format in all cases: in vivo
C57B/6 male mice [1] = assay: Amphetamine-induced stereotypy (open field locomotion); conditions: for AMBULATIONS / FINE MOVEMENTS: 30 μg/kg PO, amphetamine 8 mg/kg; for FINE MOVEMENTS: scored 60 min post-amphetamine
Method: C57B/6 male mice were placed in an open field apparatus and allowed to habituate for 15-30 minutes. The compound of the invention (at 30 μg/kg) was administered PO at 0, +15, or +30 minutes relative to amphetamine (8 mg/kg) administration, and locomotor behavior was scored for an additional 60 minutes post-amphetamine. Amphetamine was administered IP. Locomotion was separated into “fine movements” (indicative of stereotypy) and “ambulations” (indicative of hyperactivity). Amphetamine induced stereotypy. […] Locomotion was separated into “fine movements” (indicative of stereotypy) and “ambulations” (indicative of hyperactivity). Prepulse inhibition. Sprague Dawley male rats (˜200 g-300 g) were used (n=8/group). […] Each rat was individually placed in the startle chamber 10 minutes post-phencyclidine or post-amphetamine or post-vehicle. Testing was carried out using the SR-Lab Startle Response system by San Diego Instruments. Each rat was allowed to acclimate for a 5 minute period with a 65-dB background noise continuously present throughout the session. […] A sensor in the chamber recorded the startle responses following all stimuli presented.

Male Sprague-Dawley rats = assay: Pre-pulse inhibition of the startle response (PPI) disrupted by psychostimulants
Method: Male Sprague-Dawley rats were treated with Drug 1 (IP) followed 20 minutes later by Drug 2 (IP or SC as indicated in the methods). Ten minutes following administration of Drug 2 (except in the case of apomorphine where animals were immediately tested post-apomorphine), rats were placed in the startle chamber and allowed 5 minutes to acclimate with 65-dB background white noise. The acclimation period was followed by a ˜15 minute test session during which time rats were presented with 40 ms 120 dB startle pulses alone or preceded 100 ms by a pre-pulse 3, 6, or 12 dB above background. These four types of active stimuli were presented in pseudorandom order along with no-stimulation trials to assess baseline activity throughout testing. An average of 20 s separated each trial type. The maximum startle magnitude was measured for every trial type. PPI for each animal was calculated as the percentage startle magnitude to the pre-pulse+pulse or no-stimulation trials relative to the pulse-alone startle magnitude. Amphetamine induced stereotypy. […] Locomotion was separated into “fine movements” (indicative of stereotypy) and “ambulations” (indicative of hyperactivity). Prepulse inhibition. […] Each rat was individually placed in the startle chamber 10 minutes post-phencyclidine or post-amphetamine or post-vehicle. Testing was carried out using the SR-Lab Startle Response system by San Diego Instruments. Each rat was allowed to acclimate for a 5 minute period with a 65-dB background noise continuously present throughout the session. […] A sensor in the chamber recorded the startle responses following all stimuli presented.

C57B/6 male mice [2] = assay: Amphetamine-induced stereotypy (open field locomotion); conditions: 30 μg/kg PO, time post-amphetamine −15 min, amphetamine 8 mg/kg

Cc1cccc(C(C)c2c[nH]c(=S)[nH]2)c1C (stereo not shown) [AGN-203818, 4-(1-(2,3-dimethylphenyl)ethyl)-1H-imidazole-2(3H)-thione]
AMBULATIONS (C57B/6 male mice [1]; time post-amphetamine 0 min): 7337 ± 890.0 | FINE MOVEMENTS (C57B/6 male mice [1]; time post-amphetamine 0 min): 762.2 ± 89.4^⋄ | AMBULATIONS (C57B/6 male mice [1]; time post-amphetamine 15 min): 5747.3 ± 874.4 | FINE MOVEMENTS (C57B/6 male mice [1]; time post-amphetamine 15 min): 1066.5 ± 37.8^⋄ | AMBULATIONS (C57B/6 male mice [1]; time post-amphetamine 30 min): 7201.2 ± 1669.4 | FINE MOVEMENTS (C57B/6 male mice [1]; time post-amphetamine 30 min): 1297.8 ± 85.3^⋄ | oral activity (in words) (C57B/6 male mice [1]; administered PO): orally active | effect on amphetamine-induced stereotypy (in words) (C57B/6 male mice [1]; high-dose psychostimulant administration, listed as compound of the invention): effectively inhibit stereotypy; also recorded: selectively decreased amphetamine-induced stereotypy | % PPI PP3 (Male Sprague-Dawley rats; Compound 0.01 mg/kg as Drug 1, Drug 2 PCP (2 mg/kg, s.c.), pre-pulse 3 dB): 20.3 ± 10.6% | % PPI PP6 (Male Sprague-Dawley rats; Compound 0.01 mg/kg as Drug 1, Drug 2 PCP (2 mg/kg, s.c.), pre-pulse 6 dB): 21.6 ± 10.7% | % PPI PP12 (Male Sprague-Dawley rats; Compound 0.01 mg/kg as Drug 1, Drug 2 PCP (2 mg/kg, s.c.), pre-pulse 12 dB): 51.8 ± 5.6% | % PPI PP3 (Male Sprague-Dawley rats; Compound 0.03 mg/kg as Drug 1, Drug 2 PCP (2 mg/kg, s.c.), pre-pulse 3 dB): 30.9 ± 7.4% | % PPI PP6 (Male Sprague-Dawley rats; Compound 0.03 mg/kg as Drug 1, Drug 2 PCP (2 mg/kg, s.c.), pre-pulse 6 dB): 46.2 ± 4.2%^⋄ | % PPI PP12 (Male Sprague-Dawley rats; Compound 0.03 mg/kg as Drug 1, Drug 2 PCP (2 mg/kg, s.c.), pre-pulse 12 dB): 53.6 ± 4.2% | % PPI PP3 (Male Sprague-Dawley rats; Compound 0.1 mg/kg as Drug 1, Drug 2 PCP (2 mg/kg, s.c.), pre-pulse 3 dB): 35.8 ± 7.0% | % PPI PP6 (Male Sprague-Dawley rats; Compound 0.1 mg/kg as Drug 1, Drug 2 PCP (2 mg/kg, s.c.), pre-pulse 6 dB): 39.6 ± 10.7% | % PPI PP12 (Male Sprague-Dawley rats; Compound 0.1 mg/kg as Drug 1, Drug 2 PCP (2 mg/kg, s.c.), pre-pulse 12 dB): 56.2 ± 5.6%^⋄ | % PPI PP3 (Male Sprague-Dawley rats; Compound 1 mg/kg as Drug 1, Drug 2 Amphetamine (4 mg/kg, s.c.), pre-pulse 3 dB): 49.6 ± 5.8%^⋄ | % PPI PP6 (Male Sprague-Dawley rats; Compound 1 mg/kg as Drug 1, Drug 2 Amphetamine (4 mg/kg, s.c.), pre-pulse 6 dB): 52.9 ± 4.3%^⋄ | % PPI PP12 (Male Sprague-Dawley rats; Compound 1 mg/kg as Drug 1, Drug 2 Amphetamine (4 mg/kg, s.c.), pre-pulse 12 dB): 65.7 ± 4.7%^⋄ | % PPI PP3 (Male Sprague-Dawley rats; Compound 1 mg/kg as Drug 1, Drug 2 PCP (2 mg/kg, s.c.), pre-pulse 3 dB): 48.8 ± 8.2%^⋄ | % PPI PP6 (Male Sprague-Dawley rats; Compound 1 mg/kg as Drug 1, Drug 2 PCP (2 mg/kg, s.c.), pre-pulse 6 dB): 45.0 ± 12.7% | % PPI PP3 (Male Sprague-Dawley rats; Compound as Drug 1 (dose not given), Drug 2 Vehicle, pre-pulse 3 dB): 60.4 ± 4.8%^⋄ | % PPI PP6 (Male Sprague-Dawley rats; Compound as Drug 1 (dose not given), Drug 2 Vehicle, pre-pulse 6 dB): 59.8 ± 2.2%^⋄ | % PPI PP12 (Male Sprague-Dawley rats; Compound as Drug 1 (dose not given), Drug 2 Vehicle, pre-pulse 12 dB): 75.5 ± 2.9%^⋄* | effect on PPI deficits induced by amphetamine or phencyclidine (in words) (Male Sprague-Dawley rats; deficits induced by amphetamine or phencyclidine): significantly rescue deficits in sensorimotor integration | AMBULATIONS (C57B/6 male mice [2]; ambulations indicative of hyperactivity): 4756.3 ± 1208.8 | FINE MOVEMENTS (C57B/6 male mice [2]; scored 60 min post-amphetamine, fine movements indicative of stereotypy): 904.5 ± 107.0^⋄

Clc1cccc(Cl)c1N=C1NCCN1 [Clonidine, reference compound]
% PPI PP3 (Male Sprague-Dawley rats; Clonidine 30 ug/kg as Drug 1, Drug 2 Amphetamine (4 mg/kg, s.c.), pre-pulse 3 dB): 31.0 ± 6.9% | % PPI PP6 (Male Sprague-Dawley rats; Clonidine 30 ug/kg as Drug 1, Drug 2 Amphetamine (4 mg/kg, s.c.), pre-pulse 6 dB): 40.7 ± 6.0% | % PPI PP12 (Male Sprague-Dawley rats; Clonidine 30 ug/kg as Drug 1, Drug 2 Amphetamine (4 mg/kg, s.c.), pre-pulse 12 dB): 53.5 ± 5.2% | % PPI PP3 (Male Sprague-Dawley rats; Clonidine 30 ug/kg as Drug 1, Drug 2 PCP (2 mg/kg, s.c.), pre-pulse 3 dB): 34.5 ± 8.2% | % PPI PP6 (Male Sprague-Dawley rats; Clonidine 30 ug/kg as Drug 1, Drug 2 PCP (2 mg/kg, s.c.), pre-pulse 6 dB): 55.1 ± 9.8% | % PPI PP12 (Male Sprague-Dawley rats; Clonidine 30 ug/kg as Drug 1, Drug 2 PCP (2 mg/kg, s.c.), pre-pulse 12 dB): 63.7 ± 7.4% | % PPI PP3 (Male Sprague-Dawley rats; Clonidine 30 ug/kg as Drug 1, Drug 2 Vehicle, pre-pulse 3 dB above background): 35.2 ± 15.7% | % PPI PP6 (Male Sprague-Dawley rats; Clonidine 30 ug/kg as Drug 1, Drug 2 Vehicle, pre-pulse 6 dB above background): 60.8 ± 3.0%^⋄ | % PPI PP12 (Male Sprague-Dawley rats; Clonidine 30 ug/kg as Drug 1, Drug 2 Vehicle, pre-pulse 12 dB above background): 54.7 ± 8.0%
